Experimental findings from patent US9051351B2, “Hepatocyte growth factor mimics as therapeutic agents” (Washington State University, priority 2011, dated 2015) are described below.

The structures appear in SMILES notation. Where a SMILES comes first, the peptide text is derived from it. [ ]: non-standard residue; d: D form. The star is where a group is joined. Hexanoyl = CCCCCC(=O)*; Ahx = NCCCCCC(=O)O

For series [1], the system named is hippocampal neurons. Nature of the series: Immunocytochemistry: percent correlation of spines to synaptic markers. Format: cell-based, rat. The conditions noted are these: 10^−12 M, 5 days. The procedure: (§1) Transfected neurons were treated, fixed and stained. Briefly, cells were permeablized with 0.1% Triton X-100 detergent (Bio-Rad; Hercules, Calif.) for 10 minutes. An 8% bovine serum albumin (Intergen Company; Burlington, Mass.) in PBS was used to prevent non-specific binding for one hour at R.T.; Primary antibody incubations were at a 1:2500 dilution (see below) in 1% BSA in PBS at 4° C. overnight. Secondary antibody, 1:3000 Alexafluor 488 goat-anti-mouse (Invitrogen: Carlsbad, Calif.) was applied for two hours at room temperature. Coverslips were mounted with ProLong Gold anti-fade reagent (Invitrogen; Carlsbad, Calif.) and all washes were done with PBS. Imaging and analysis were performed as described above. For presynaptic excitatory transmission the VGLUT1 (Synaptic Systems, Goettingen, Germany) marker (Balschun, Moechars et al.) was employed and for general presynaptic transmission synapsin1 (Synaptic Systems, Goettingen, Germany) (Ferreira and Rapoport 2002) was applied. A postsynaptic function was established by PSD-95 (Milipore, Billerica, Mass.) (El-Husseini, Schnell et al. 2000). In each instance the total number of spines was counted for the treatment groups, control, Nle1-AngIV and Dihexa, to ensure an active phenotype. The total number of actin enriched spines adjacent to VGLUT1 or Synapsin were counted and converted to a percentage as the percent correlation of treatment-induced spines to presynaptic markers is a strong indicator of ability to transmit excitatory signals.
as §1, with “fixed and stained as previously described in Chapter two. Briefly, cells” for “fixed and stained. Briefly, cells”, “enriched spines (red) adjacent to” for “enriched spines adjacent to”
Transfected neurons were treated and fixed as described above. Following fixation, cells were rinsed in PBS and permeabilized with 0.1% Triton® X-100 detergent (Bin-Rad; Hercules, Calif.), followed by two rinses in PBS and blocked with 8% bovine serum albumin (Intergen Company; Burlington, Mass.) in PBS for 1 h. […]

The subject of series [2] is hippocampal neurons. Nature of the series: Whole-cell recordings of mEPSCs in dissociated hippocampal neurons. Format: cell-based, rat. The settings on record: 10^−12 M, 5 days.
Series [3] is described as follows: Blood stability in heparinized rat blood. In kind it is in vitro ADME. The conditions noted are these: rat. The procedure:
At the end of each incubation, 20 μL of […]

Series [4] relates to hippocampal neurons. Nature of the series: Dendritic spine counts (spinogenesis) in mRFP-β-actin transfected dissociated hippocampal neurons. Format: cell-based, rat.

For `CCCCCC(=O)N[C@@H](Cc1ccc(O)cc1)C(=O)N[C@H](C(=O)NCCCCCC(N)=O)[C@@H](C)CC` [Dihexa, N-hexanoic-Tyr-Ile-(6)-aminohexanoic amide] (Hexanoyl-Tyr-Ile-[Ahx]-NH2), the “percent correlation of treatment-induced spines to VGLUT1, Synapsin or PSD-95 vs control” value in series [1] is “did not differ from control treated neurons in the percent correlation”. Moreover, the “Number of spines/50 μm” value in series [1] (PSD-95 study) came to 43 spines/50 μm; in series [1] (Synapsin study) it was 37 spines/50 μm; in series [1] (VGLUT1 study), 44 spines/50 μm. Besides, the “frequency of AMPA-mediated mEPSCs” value in series [2] turned out to be 4.82±0.34 Hz. Moreover, the “increase in mEPSC frequency over control” value in series [2] is reported as 1.6 fold. Besides, the “stable in the blood” value in series [3] is “over 5 hours”. In series [4] (10^−12 M, 5 day treatment, vs vehicle), the “increase in the number of spines” value is on record as ~3 fold. Also, the “mean spine numbers per 50 μm dendrite length” value in series [4] (10^−12 M, acute 30 minute application on DIV12) is given as 23.9 spines per 50 μm dendrite leng; in series [4] (neurons transfected with mRFP-β-actin alone, HGF 10 ng/ml, Dihexa or Nle1-AngIV 10^−12 M, 48 hours), 21.8 spines per 50 μm dendrite leng; in series [4] (neurons transfected with mRFP-β-actin and shMet (c-Met knock-down), HGF 10 ng/ml, Dihexa or Nle1-AngIV 10^−12 M) it was 12.0 spines per 50 μm dendrite leng.
